Results published in article PMC12203311, “Design, synthesis, in silico and in vitro evaluation of pyrrole–indole hybrids as dual tubulin and aromatase inhibitors with potent anticancer activities” (RSC Advances, 2025).

Key:
CCRF-CEM = experiment: NCI60 five-dose screen; format: cell-based; details: Homo sapiens, leukemia; for CC50: read-out: LC50 (the source's name)
K-562 = experiment: NCI60 five-dose screen; format: cell-based; details: Homo sapiens, K562, K-562, leukemia; for CC50: read-out: LC50 (the source's name)
RPMI-8226 = experiment: NCI60 five-dose screen; format: cell-based; details: Homo sapiens, RPMI-8226, leukemia; for CC50: read-out: LC50 (the source's name)
NCI-H226 = experiment: NCI60 five-dose screen; format: cell-based; details: Homo sapiens, NCI-H226, NSC lung cancer; for CC50: read-out: LC50 (the source's name)
NCI-H460 = experiment: NCI60 five-dose screen; format: cell-based; details: Homo sapiens, NCI-H460, NSC lung cancer; for CC50: read-out: LC50 (the source's name)
NCI-H522 = experiment: NCI60 five-dose screen; format: cell-based; details: Homo sapiens, NCI-H522, NSC lung cancer; for CC50: read-out: LC50 (the source's name)
HCC-2998 = experiment: NCI60 five-dose screen; format: cell-based; details: Homo sapiens, HCC-2998, colon cancer; for CC50: read-out: LC50 (the source's name)
HCT-116 = experiment: NCI60 five-dose screen; format: cell-based; details: Homo sapiens, HCT-116, colon cancer; for CC50: read-out: LC50 (the source's name)
HT29 = experiment: NCI60 five-dose screen; format: cell-based; details: Homo sapiens, HT-29, HT29, colon cancer; for CC50: read-out: LC50 (the source's name)
SNB-19 = experiment: NCI60 five-dose screen; format: cell-based; details: Homo sapiens, SNB-19, CNS cancer; for CC50: read-out: LC50 (the source's name)
SNB-75 = experiment: NCI60 five-dose screen; format: cell-based; details: Homo sapiens, SNB-75, CNS cancer; for CC50: read-out: LC50 (the source's name)
LOX IMVI = experiment: NCI60 five-dose screen; format: cell-based; details: Homo sapiens, melanoma; for CC50: read-out: LC50 (the source's name)
MDA-MB-435 = experiment: NCI60 five-dose screen; format: cell-based, human; details: Homo sapiens; for CC50: MDA-MB-435, MDA-MB-435, melanoma, read-out: LC50 (the source's name); for GI50: MDA-MB-435, melanoma
SK-MEL-5 = experiment: NCI60 five-dose screen; format: cell-based, human; details: Homo sapiens; for CC50: SK-MEL-5, SK-MEL-5, melanoma, read-out: LC50 (the source's name); for GI50: SK-MEL-5, melanoma
UACC-257 = experiment: NCI60 five-dose screen; format: cell-based; details: Homo sapiens, UACC-257, melanoma; for CC50: read-out: LC50 (the source's name)
OVCAR-4 = experiment: NCI60 five-dose screen; format: cell-based; details: Homo sapiens, OVCAR-4, ovarian cancer; for CC50: read-out: LC50 (the source's name)
OVCAR-5 = experiment: NCI60 five-dose screen; format: cell-based; details: Homo sapiens, OVCAR-5, ovarian cancer; for CC50: read-out: LC50 (the source's name)
OVCAR-8 = experiment: NCI60 five-dose screen; format: cell-based; details: Homo sapiens, OVCAR-8, ovarian cancer; for CC50: read-out: LC50 (the source's name)
786-0 = experiment: NCI60 five-dose screen; format: cell-based; details: Homo sapiens, 786-0, renal cancer; for CC50: read-out: LC50 (the source's name)
ACHN = experiment: NCI60 five-dose screen; format: cell-based; details: Homo sapiens, renal cancer; for CC50: read-out: LC50 (the source's name)
CAKI-1 = experiment: NCI60 five-dose screen; format: cell-based; details: Homo sapiens, CAKI-1, renal cancer; for CC50: read-out: LC50 (the source's name)
DU-145 = experiment: NCI60 five-dose screen; format: cell-based; details: Homo sapiens, DU-145, prostate cancer; for CC50: read-out: LC50 (the source's name)
Human CYP19 (aromatase) = target: T1, Human CYP19 (aromatase) (Homo sapiens, UniProt P11511); experiment: Aromatase inhibition assay (DBF fluorometric substrate); format: biochemical; details: active defined as IC50 < 12.5 µM
T1 construct: purchased GENTEST, Woburn, MA 456260; host or cells: baculovirus/insect cells
T1 sequence (P11511 1-503): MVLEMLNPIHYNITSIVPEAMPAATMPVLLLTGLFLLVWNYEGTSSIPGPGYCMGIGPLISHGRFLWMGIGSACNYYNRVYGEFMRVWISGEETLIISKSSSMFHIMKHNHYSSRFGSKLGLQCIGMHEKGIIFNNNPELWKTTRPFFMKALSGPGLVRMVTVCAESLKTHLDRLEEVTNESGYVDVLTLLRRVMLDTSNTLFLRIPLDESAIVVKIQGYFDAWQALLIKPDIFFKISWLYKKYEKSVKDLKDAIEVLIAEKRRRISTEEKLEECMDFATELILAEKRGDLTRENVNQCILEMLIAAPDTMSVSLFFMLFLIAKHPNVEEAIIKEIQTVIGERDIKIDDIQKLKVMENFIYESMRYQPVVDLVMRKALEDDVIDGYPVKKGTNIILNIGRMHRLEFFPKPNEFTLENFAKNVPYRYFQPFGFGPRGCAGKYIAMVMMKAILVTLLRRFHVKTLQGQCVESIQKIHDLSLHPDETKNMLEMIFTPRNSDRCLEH
Procedure, shortened: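 Insect-cell-expressed human CYP19 Supersomes with oxidoreductase turned over DBF for 30 min at 37 °C after a 10 min 37 °C pre-incubation with cofactor. NaOH quench; product measured by fluorescence, excitation 490 nm, emission 530 nm.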

Work on CCOC(=O)c1ccc(/C=N/NC(=O)c2[nH]c3ccc(Br)cc3c2-c2ccccc2)[nH]1 [Derivative 3i, Ethyl (E)-5-((2-(5-bromo-3-phenyl-1H-indole-2-carbonyl)hydrazono)methyl)-1H-pyrrole-2-carboxylate] yielded a GI50 (CCRF-CEM) of 3.04 µM, a CC50 (CCRF-CEM) of over 100 µM and a GI50 (K-562) of 1.08 µM. For the same compound, the CC50 (K-562) was over 100 µM, the GI50 (RPMI-8226) was 2.28 µM and the CC50 (RPMI-8226) was over 100 µM. It also gave a GI50 (NCI-H226) of 3.13 µM, a CC50 (NCI-H226) of 45.4 µM and a GI50 (NCI-H460) of 2.8 µM. For the same compound, the CC50 (NCI-H460) was 41.4 µM, the GI50 (NCI-H522) was 0.46 µM and the CC50 (NCI-H522) was 82.2 µM. It also gave a GI50 (HCC-2998) of 2.51 µM, a CC50 (HCC-2998) of 36.4 µM and a GI50 (HCT-116) of 3.24 µM. For the same compound, the CC50 (HCT-116) was over 100 µM, the GI50 (HT29) was 2.32 µM and the CC50 (HT29) was 22.9 µM. It also gave a GI50 (SNB-19) of 2.98 µM, a CC50 (SNB-19) of 62.8 µM and a GI50 (SNB-75) of 0.399 µM. For the same compound, the CC50 (SNB-75) was over 100 µM, the GI50 (LOX IMVI) was 2.26 µM and the CC50 (LOX IMVI) was 35.2 µM. The CC50 (MDA-MB-435) was 27.6 µM, the GI50 (MDA-MB-435) was 0.464 µM and the CC50 (SK-MEL-5) was 7.68 µM. The GI50 (SK-MEL-5) was 1.48 µM, the GI50 (UACC-257) was 2.97 µM and the CC50 (UACC-257) was 87.4 µM. For the same compound, the GI50 (OVCAR-4) was 4.26 µM, the CC50 (OVCAR-4) was over 100 µM and the GI50 (OVCAR-5) was 3.43 µM. The CC50 (OVCAR-5) was 38 µM, the GI50 (OVCAR-8) was 2.49 µM and the CC50 (OVCAR-8) was 47.6 µM. For the same compound, the GI50 (786-0) was 4.48 µM, the CC50 (786-0) was over 100 µM and the GI50 (ACHN) was 1.86 µM. The CC50 (ACHN) was 73.8 µM, the GI50 (CAKI-1) was 0.961 µM and the CC50 (CAKI-1) was 74.2 µM. For the same compound, the GI50 (DU-145) was 3.32 µM, the CC50 (DU-145) was 38.7 µM and the IC50 (Human CYP19 (aromatase)) was 2.6 ± 0.8 µM.
Work on CCOC(=O)c1c[nH]c(/C=N/NC(=O)c2[nH]c3ccc(Br)cc3c2-c2ccccc2)c1 [Derivative 3j, Ethyl (E)-5-((2-(5-bromo-3-phenyl-1H-indole-2-carbonyl)hydrazono)methyl)-1H-pyrrole-3-carboxylate] yielded a GI50 (CCRF-CEM) of 2.41 µM, a CC50 (CCRF-CEM) of over 100 µM and a GI50 (K-562) of 1.9 µM. It also gave a CC50 (K-562) of 57.1 µM, a GI50 (RPMI-8226) of 2.52 µM and a CC50 (RPMI-8226) of over 100 µM. It also gave a GI50 (NCI-H226) of 3.07 µM, a CC50 (NCI-H226) of 41.3 µM and a GI50 (NCI-H460) of 2.41 µM. It also gave a CC50 (NCI-H460) of 23.1 µM, a GI50 (NCI-H522) of 2.27 µM and a CC50 (NCI-H522) of 33 µM. It also gave a GI50 (HCC-2998) of 2.18 µM, a CC50 (HCC-2998) of 15.9 µM and a GI50 (HCT-116) of 2.95 µM. For the same compound, the CC50 (HCT-116) was 45.6 µM, the GI50 (HT29) was 2.59 µM and the CC50 (HT29) was 27.5 µM. For the same compound, the GI50 (SNB-19) was 4.51 µM, the CC50 (SNB-19) was 46.1 µM and the GI50 (SNB-75) was 1.09 µM. The CC50 (SNB-75) was 35.8 µM, the GI50 (LOX IMVI) was 2.82 µM and the CC50 (LOX IMVI) was 40.9 µM. It also gave a CC50 (MDA-MB-435) of 16.1 µM, a GI50 (MDA-MB-435) of 1.09 µM and a CC50 (SK-MEL-5) of 10.1 µM. It also gave a GI50 (SK-MEL-5) of 1.44 µM, a GI50 (UACC-257) of 2.53 µM and a CC50 (UACC-257) of 51.8 µM. It also gave a GI50 (OVCAR-4) of 2.28 µM, a CC50 (OVCAR-4) of 34.8 µM and a GI50 (OVCAR-5) of 3.87 µM. It also gave a CC50 (OVCAR-5) of 42.9 µM, a GI50 (OVCAR-8) of 2.37 µM and a CC50 (OVCAR-8) of 23.7 µM. For the same compound, the GI50 (786-0) was 3.29 µM, the CC50 (786-0) was 44.7 µM and the GI50 (ACHN) was 3.39 µM. For the same compound, the CC50 (ACHN) was 36.4 µM, the GI50 (CAKI-1) was 1.46 µM and the CC50 (CAKI-1) was 40.5 µM. For the same compound, the GI50 (DU-145) was 3.48 µM, the CC50 (DU-145) was 35.6 µM and the IC50 (Human CYP19 (aromatase)) was 1.3 ± 0.4 µM.
